Measurements reported in patent publication US7605175B2, “Inhibitors of cyclin-dependent kinases, compositions and uses related thereto” (GPC Biotech AG, priority 2001, dated 2009).

Legend:
Conditions in all cases: Table 6
Cdc2/cyclin B = molecular target: T1, Cdc2/cyclin B (Homo sapiens, UniProt P06493); test: Biochemical kinase assay Cdc2/cyclin B
T1 construct: purchased
Description: (§1) Enzymes: Cdc2/cyclin B was obtained from commercial sources. Cdk2/his-cyclin Eshort was expressed in Sf9 cells. Cdk2/cyclin A, cdk4/cyclin D1, and cdk6/cyclin D2 were expressed in Sf9 cells. Protein kinase A (catalytic subunit, from bovine heart) and protein kinase C (mixed isozymes from rat brain) were obtained from commercial sources.
(§2) Substrates: Histone H1 was from commercial sources. GST-Rb is glutathione-S-trans-ferase fused to the N-terminal of residues 379-928 of the Rb protein.
Assays: Cdc2/cyclinB activity was determined by measuring incorporation of radio-activity from adenosine [γ-^32P]triphosphate into Histone H1 using a TCA precipitation assay. Cdc2/cyclin B kinase and Histone H1 were obtained from commercial sources. The final assay solution contained 50 mM Tris.HCl, 10 mM MgCl2, 1 mM dithiothreitol, 50 μM adenosine triphosphate, 2 μCi ^32P, 10% dimethylsulfoxide (from compounds), pH 7.5, 20 μg Histone H1, 6 U enzyme in a 50 μL volume. Compounds were added at various concentrations between 1 nM and 10 μM. The reaction was started with the addition of enzyme, allowed to proceed for 20 min at 30° C., and stopped by the addition of 20 μL of stop solution (237 mM disodium ethylenediamine tetraacetate, 105 mM adenosine triphosphate, pH 8.0). The protein was precipitated by the addition of 35 μL 70% (w/v) trichloroacetic acid, and the precipitate was captured on a 96-well glass fiber filter plate (Millipore, Inc.), which had been wet with 25% (w/v) trichloroacetic acid. The filter was washed ten times with 25% (w/v) trichloroacetic acid, and the amount of incorporated ^32P was determined by scintillation counting after adding 100 μL scintillant (Microscint 20, Packard Instruments). Relative activity was determined by dividing the amount of radioactivity incorporated in the presence of compound by the amount of radioactivity incorporated in a control experiment containing DMSO alone but no compound. The background radioactivity, determined in an experiment containing 50 mM EDTA in place of compound, was subtracted from all results before calculations.

Cdk4/cyclin D1 = molecular target: T2, Cdk4/cyclin D1 (Homo sapiens, UniProt P11802); test: Biochemical kinase assay Cdk4/cyclin D1
T2 construct: made in house; host or cells: Sf9 insect cells
Description: as §1, §2
(§3) Cdk2/cyclin E, Cdk2/cyclin A, Cdk4/cyclin D1, and Cdk6/cyclin D2 activity was determined using a glutathione-sepharose capture assay. The enzymes were expressed in Sf9 insect cells as heterodimers, and the substrate (GST-Rb) was glutathione-S-transferase fused to residues 379 to 928 of Rb retinoblastoma protein, expressed in E. coli. The assay solution contained 50 mM Tris.HCl, 10 mM MgCl2, 1 mM dithiothreitol, 50 μM adenosine triphosphate, 2 μCi [γ-^33P]adenosine triphosphate, 10% dimethylsulfoxide (from compounds), pH 7.5, 40 μg GST-Rb, and enzyme in a 100 μL volume. Compounds were added at various concentrations between 1 nM and 10 μM. The reaction was allowed to proceed for 15 min at 30° C. and was stopped by the addition of 70 μL of stop solution (237 mM disodium ethylene-diamine tetraacetate, 105 mM adenosine triphosphate, pH 8.0). The GST-Rb was captured by binding to glutathione-sepharose bead (Amersham) for 110 min, and the suspension was filtered through a glass fiber filter. After washing the retained beads five time with phosphate-buffered saline containing 0.3% (w/v) Tween-20, the amount of ^33P incorporated was determined by scintillation counting after adding 100 μL scintillant. Relative activity was determined by dividing the amount of radioactivity incorporated in the presence of compound by the amount of radioactivity incorporated in a control experiment containing DMSO alone but no compound. The background radioactivity, determined in an experiment containing 50 mM disodium ethylenediamine tetraacetate in place of compound, was subtracted from all results before calculations.

Cdk2/cyclin E = molecular target: T3, Cdk2/cyclin E (Homo sapiens, UniProt P24941); test: Biochemical kinase assay Cdk2/cyclin E
T3 construct: made in house; host or cells: Sf9 insect cells
Description: as §1, §2, §3

T2 sequence (P11802 whole entry, species assumed): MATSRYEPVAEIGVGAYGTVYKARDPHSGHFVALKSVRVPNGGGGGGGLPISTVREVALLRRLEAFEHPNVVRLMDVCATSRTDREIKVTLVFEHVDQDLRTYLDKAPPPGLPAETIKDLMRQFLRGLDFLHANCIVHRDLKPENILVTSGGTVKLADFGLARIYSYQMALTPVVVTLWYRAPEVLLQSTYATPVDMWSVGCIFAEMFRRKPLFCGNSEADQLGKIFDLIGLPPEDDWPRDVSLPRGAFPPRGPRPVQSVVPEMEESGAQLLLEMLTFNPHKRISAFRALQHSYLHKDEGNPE
T2 sequence (P24385 whole entry partner, species assumed): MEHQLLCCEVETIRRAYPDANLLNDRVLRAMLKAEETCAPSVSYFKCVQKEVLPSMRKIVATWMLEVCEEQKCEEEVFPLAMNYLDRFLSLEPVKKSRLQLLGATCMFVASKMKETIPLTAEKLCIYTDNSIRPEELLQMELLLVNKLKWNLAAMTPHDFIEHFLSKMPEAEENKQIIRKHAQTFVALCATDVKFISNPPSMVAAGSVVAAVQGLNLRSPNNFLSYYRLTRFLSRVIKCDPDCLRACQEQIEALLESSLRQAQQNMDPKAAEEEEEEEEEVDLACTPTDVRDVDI
T1 sequence (P06493 whole entry, species assumed): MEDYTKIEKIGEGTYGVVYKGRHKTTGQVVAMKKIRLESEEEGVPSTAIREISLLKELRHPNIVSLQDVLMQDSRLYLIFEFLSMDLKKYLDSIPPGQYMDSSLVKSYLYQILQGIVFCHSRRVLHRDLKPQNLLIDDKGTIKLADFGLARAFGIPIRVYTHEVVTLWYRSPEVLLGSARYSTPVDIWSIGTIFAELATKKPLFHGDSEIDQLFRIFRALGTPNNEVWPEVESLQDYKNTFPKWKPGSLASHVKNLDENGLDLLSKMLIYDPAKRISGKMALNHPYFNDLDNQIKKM
T1 sequence (P14635 whole entry partner, species assumed): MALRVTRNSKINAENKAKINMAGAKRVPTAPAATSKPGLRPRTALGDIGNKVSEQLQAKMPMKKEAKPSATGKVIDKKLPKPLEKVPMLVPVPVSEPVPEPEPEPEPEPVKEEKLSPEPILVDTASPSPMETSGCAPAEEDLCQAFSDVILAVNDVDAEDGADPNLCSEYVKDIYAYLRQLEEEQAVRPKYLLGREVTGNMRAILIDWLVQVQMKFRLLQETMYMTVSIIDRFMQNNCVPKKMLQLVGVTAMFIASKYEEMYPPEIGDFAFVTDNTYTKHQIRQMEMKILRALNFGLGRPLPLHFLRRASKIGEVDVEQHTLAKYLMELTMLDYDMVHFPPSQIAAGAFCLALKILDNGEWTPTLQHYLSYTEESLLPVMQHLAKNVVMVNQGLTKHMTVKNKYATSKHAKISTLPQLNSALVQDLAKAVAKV

| SMILES | IC50 (Cdc2/cyclin B) | IC50 (Cdk4/cyclin D1) | IC50 (Cdk2/cyclin E) |
| --- | --- | --- | --- |
| O=C(Nc1cccc2c1C(=O)c1c-2n[nH]c1-c1ccc(OCCN2CCOCC2)cc1)NN1CCOCC1 [Compound A3] | < 0.1 µM | < 0.1 µM | < 0.1 µM |
| Cc1cc(OCCN2CCOCC2)ccc1-c1[nH]nc2c1C(=O)c1c(NC(=O)NN3CCN(C)CC3)cccc1-2 [Compound A7] | < 0.1 µM | < 0.1 µM | < 0.1 µM |
| Cc1cc(OCCN2CCCCC2)ccc1-c1[nH]nc2c1C(=O)c1c(NC(=O)NN3CCN(C)CC3)cccc1-2 [Compound A8] | < 0.1 µM | < 0.1 µM | < 0.1 µM |
| Cc1cc(OCCN2CCCN(C)CC2)ccc1-c1[nH]nc2c1C(=O)c1c(NC(=O)NN3CCN(C)CC3)cccc1-2 [Compound A9] | < 0.01 µM | < 0.1 µM | < 0.1 µM |
| O=C(Nc1cccc2c1C(=O)c1c-2n[nH]c1-c1ccc(O)c(CN2CCOCC2)c1)NN1CCOCC1 [Compound A10] | < 0.01 µM | < 1 µM | < 0.1 µM |
| Cc1cc(OCCn2cccn2)ccc1-c1[nH]nc2c1C(=O)c1c(NC(=O)NN3CCN(C)CC3)cccc1-2 [Compound A11] | < 0.1 µM | < 0.1 µM | < 0.1 µM |
| CN1CCN(NC(=O)Nc2cccc3c2C(=O)c2c(-c4ccc(OCCN5CCCC5)cc4F)n[nH]c2-3)CC1 [Compound A12] | < 0.1 µM | < 0.1 µM | < 0.1 µM |
| CN1CCN(CCOc2ccc(-c3n[nH]c4c3C(=O)c3c(NC(=O)NN5CCN(C)CC5)cccc3-4)c(F)c2)CC1 [Compound A13] | < 0.1 µM | < 0.1 µM | < 0.1 µM |
| CN1CCN(NC(=O)Nc2cccc3c2C(=O)c2c(-c4ccc(OCCN5CCCC5)c(F)c4)n[nH]c2-3)CC1 [Compound A14] | < 0.1 µM | < 0.1 µM | < 0.1 µM |
| CN1CCN(NC(=O)Nc2cccc3c2C(=O)c2c-3n[nH]c2-c2ccc(O)cc2)CC1 [Compound A15] | < 0.01 µM | < 0.1 µM | < 0.1 µM |
| CC(C)N1CCN(CCOc2ccc(-c3n[nH]c4c3C(=O)c3c(NC(=O)NN5CCOCC5)cccc3-4)c(F)c2)CC1 [Compound A16] | < 0.1 µM | < 1 µM | < 0.1 µM |
| CN1CCN(NC(=O)Nc2cccc3c2C(=O)c2c-3n[nH]c2-c2ccc(OCCn3cccn3)cc2)CC1 [Compound A17] | < 0.01 µM | < 0.1 µM | < 0.1 µM |
| Cc1cc(-c2[nH]nc3c2C(=O)c2c(NC(=O)NN4CCN(C)CC4)cccc2-3)ccc1OCCN1CCN(C(C)C)CC1 [Compound A18] | < 0.1 µM | < 0.1 µM | < 0.1 µM |
| Cc1cc(OCCN2CCN(C(C)C)CC2)ccc1-c1[nH]nc2c1C(=O)c1c(NC(=O)NN3CCN(C)CC3)cccc1-2 [Compound A19] | < 0.1 µM | < 1 µM | < 0.1 µM |
| CC(C)N1CCN(CCCOc2ccc(-c3[nH]nc4c3C(=O)c3c(NC(=O)NN5CCOCC5)cccc3-4)cc2)CC1 [Compound A20] | < 0.01 µM | < 0.1 µM | < 0.01 µM |
| Cc1cc(OCCCN2CCN(C(C)C)CC2)ccc1-c1[nH]nc2c1C(=O)c1c(NC(=O)NN3CCOCC3)cccc1-2 [Compound A21] | < 0.1 µM | < 1 µM | < 0.01 µM |
| CC(C)N1CCN(CCOc2ccc(-c3n[nH]c4c3C(=O)c3c(NC(=O)NN5CCOCC5)cccc3-4)cc2F)CC1 [Compound A22] | < 0.1 µM | < 0.1 µM | < 0.01 µM |
| CC(C)N1CCN(NC(=O)Nc2cccc3c2C(=O)c2c-3n[nH]c2-c2ccc(OCCN3CCCC3)cc2)CC1 [Compound A23] | < 0.1 µM | < 0.1 µM | < 0.01 µM |
| Cc1cc(-c2[nH]nc3c2C(=O)c2c(NC(=O)NN4CCOCC4)cccc2-3)ccc1OCCN1CCN(C(C)C)CC1 [Compound A24] | < 0.01 µM | < 0.1 µM | < 0.01 µM |
| Cc1cc(-c2[nH]nc3c2C(=O)c2c(NC(=O)NN4CCOCC4)cccc2-3)ccc1OCCN1CCCC1 [Compound A25] | < 0.1 µM | < 0.1 µM | < 0.1 µM |
| CCOC(=O)CN1CCN(NC(=O)Nc2cccc3c2C(=O)c2c-3n[nH]c2-c2ccc(OCCN3CCCC3)cc2)CC1 [Compound A26] | < 0.1 µM | < 0.1 µM | < 0.1 µM |

| SMILES | IC50 (Cdc2/cyclin B) | IC50 (Cdk4/cyclin D1) | IC50 (Cdk2/cyclin E) |
| --- | --- | --- | --- |
| O=C(Nc1cccc2c1C(=O)c1c(-c3ccc(OCCN4CCOCC4)c(F)c3)n[nH]c1-2)NN1CCOCC1 [Compound A27] | < 0.01 µM | < 0.1 µM | < 0.1 µM |
| O=C(Nc1cccc2c1C(=O)c1c(-c3ccc(CN4CCOCC4)cc3)n[nH]c1-2)NN1CCOCC1 [Compound A47] | < 0.1 µM |  | < 0.1 µM |
| CN1CCN(Cc2ccc(-c3n[nH]c4c3C(=O)c3c(NC(=O)NN5CCOCC5)cccc3-4)cc2)CC1 [Compound A49] | < 0.1 µM |  | < 0.1 µM |
| O=C(Nc1cccc2c1C(=O)c1c(-c3ccc(CN4CCCC4)cc3)n[nH]c1-2)NN1CCOCC1 [Compound A51] |  |  | < 0.1 µM |
| COc1ccc(Cc2nc3c(c(C(C)C)nn3-c3c(Cl)cccc3Cl)c(=O)[nH]2)cc1 [Compound A67] | < 0.1 µM |  | < 0.01 µM |
| O=C(Nc1cccc2c1C(=O)c1c(-c3ccc(OCc4nnn[nH]4)cc3)n[nH]c1-2)NN1CCOCC1 [Compound A74] | < 0.1 µM |  | < 0.1 µM |
| O=C(Nc1cccc2c1C(=O)c1c(-c3ccc(CN4CCN(c5ccccn5)CC4)cc3)n[nH]c1-2)NN1CCOCC1 [Compound A82] |  |  | < 0.1 µM |
| O=C(Nc1cccc2c1C(=O)c1c(-c3ccc(CNC(CO)CO)cc3)n[nH]c1-2)NN1CCOCC1 [Compound B1] |  |  | < 0.01 µM |
| O=C(Nc1cccc2c1C(=O)c1c(-c3ccc(CN(CCO)CCO)cc3)n[nH]c1-2)NN1CCOCC1 [Compound B2] | < 0.01 µM |  | < 0.1 µM |
| O=C(Nc1cccc2c1C(=O)c1c(-c3ccc(CN4CCN(CCO)CC4)cc3)n[nH]c1-2)NN1CCOCC1 [Compound B3] | < 0.01 µM |  | < 0.1 µM |
| O=C(Nc1cccc2c1C(=O)c1c(-c3ccc(CNCCOCCO)cc3)n[nH]c1-2)NN1CCOCC1 [Compound B4] |  |  | < 0.1 µM |
| O=C(Nc1cccc2c1C(=O)c1c(-c3ccc(CN4CCC(O)CC4)cc3)n[nH]c1-2)NN1CCOCC1 [Compound B5] |  |  | < 0.1 µM |
| O=C(Nc1cccc2c1C(=O)c1c(-c3ccc(CN4CCC[C@H]4CO)cc3)n[nH]c1-2)NN1CCOCC1 [Compound B6] |  |  | < 0.1 µM |
| O=C(Nc1cccc2c1C(=O)c1c(-c3ccc(CN4CCN(c5cccc(C(F)(F)F)c5)CC4)cc3)n[nH]c1-2)NN1CCOCC1 [Compound B7] |  |  | < 0.1 µM |
| O=C(Nc1cccc2c1C(=O)c1c(-c3ccc(CN4CC[C@@H](O)C4)cc3)n[nH]c1-2)NN1CCOCC1 [Compound B8] | < 0.1 µM |  |  |
| CCOC(=O)C1CCN(Cc2ccc(-c3n[nH]c4c3C(=O)c3c(NC(=O)NN5CCOCC5)cccc3-4)cc2)CC1 [Compound B9] | < 0.1 µM |  |  |
| O=C(Nc1cccc2c1C(=O)c1c(-c3ccc(CNCCO)cc3)n[nH]c1-2)NN1CCOCC1 [Compound B10] | < 0.1 µM |  |  |
| O=C(Nc1cccc2c1C(=O)c1c(-c3ccc(CNCC(O)CO)cc3)n[nH]c1-2)NN1CCOCC1 (stereo not shown) [Compound B11] | < 0.1 µM |  |  |
| O=C(Nc1cccc2c1C(=O)c1c(-c3ccc(CNCc4cccnc4)cc3)n[nH]c1-2)NN1CCOCC1 [Compound B12] | < 0.1 µM |  |  |
| O=C(Nc1cccc2c1C(=O)c1c(-c3ccc(CNCc4ccccn4)cc3)n[nH]c1-2)NN1CCOCC1 [Compound B13] | < 0.1 µM |  |  |
